Among the test systems are A498 renal; SF-295 CNS; RXF 393 renal; ACHN renal; HCT-116 colon; MCF7 breast; SW-620 colon; HS 578T breast; NCI-H226 lung; DU-145 prostate.
Holding throughout (test): DTP human tumour cell line panel, 48 h

This note sets out measurements from PubChem BioAssay (NCI).

Where “and” joins values, the source holds several entries; their conditions need not be identical. Equal values may be shown once.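 Briefly, cells in 96-well plates were exposed to five compound concentrations for 48 h, and endpoints were estimated by linear interpolation. GI50: concentration for 50% inhibition of growth. TGI: total growth inhibition.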

On to `CN(C)CCCN1c2ccccc2Sc2ccc(C(F)(F)F)cc21`, for which the GI50 was 1.05 µM in the test on A498 renal; 1.65 µM in the test with SF-295 CNS; 1.32 µM in the test with RXF 393 renal; 1.81 µM in the test with ACHN renal; 1.64 µM in the test on HCT-116 colon; 1.6 µM in the test on MCF7 breast. For the same compound, the GI50 was 1.58 µM with SW-620 colon, 1.63 µM in the test on HS 578T breast, 1.56 µM in the test with NCI-H226 lung and 1.79 µM in the test with DU-145 prostate. The TGI in the test with SF-295 CNS is 3.23 µM and 30.4 µM and 29.1 µM; in the test with ACHN renal it was 3.85 µM and 28.8 µM and 28.2 µM; in the test on HCT-116 colon, 3.13 µM and 28.5 µM and 27.2 µM; in the test with HS 578T breast it was 3.7 µM and 28.5 µM; in the test with NCI-H226 lung, 3.17 µM; in the test with DU-145 prostate it was 3.22 µM and 31.2 µM.
Turning to `COc1cc2c(c(OC)c1OC)-c1cc(I)c(O)cc1[C@@H](NC(C)=O)CC2`, the GI50 with A498 renal was 0.0459 µM; with SF-295 CNS, 0.037 µM; in the test on RXF 393 renal, 0.0496 µM; with ACHN renal, 0.383 µM; with HCT-116 colon, 0.0409 µM; with MCF7 breast it was 0.0336 µM. Moreover, the concentration for 50% growth inhibition (GI50) in the test with SW-620 colon was 0.039 µM; in the test on HS 578T breast, 0.029 µM; in the test with NCI-H226 lung, 0.299 µM; in the test on DU-145 prostate it was 0.0398 µM. Besides, the TGI was 5.5 µM in the test with A498 renal; above 100 µM with SF-295 CNS; above 100 µM in the test with RXF 393 renal; above 100 µM with ACHN renal; 19.4 µM with HCT-116 colon; above 100 µM in the test on MCF7 breast. The total growth inhibition concentration (TGI) in the test with SW-620 colon is above 100 µM; with NCI-H226 lung, 99.2 µM; in the test on DU-145 prostate it was 0.292 µM.
Regarding `COc1cc2ncn(-c3cc(OCc4ccccc4C(F)(F)F)c(C(N)=O)s3)c2cc1OC`, the 50% growth inhibitory concentration (GI50) with A498 renal was 0.186 µM; in the test with SF-295 CNS, 0.131 µM; in the test on RXF 393 renal, 0.102 µM; in the test on ACHN renal, 2.79 µM; in the test with HCT-116 colon it was 0.246 µM; in the test on MCF7 breast, 0.0282 µM. Further, the GI50 in the test with SW-620 colon was 0.0822 µM; in the test with HS 578T breast it was 0.576 µM; in the test with NCI-H226 lung, 1.01 µM; in the test on DU-145 prostate, 0.0924 µM. Further, the TGI in the test on A498 renal was 5.2 µM; in the test with SF-295 CNS it was 6.9 µM; in the test with RXF 393 renal, 4.02 µM; in the test with ACHN renal it was above 25 µM; in the test with HCT-116 colon, above 25 µM; in the test on MCF7 breast it was above 25 µM. In addition, the total growth inhibition concentration (TGI) in the test on SW-620 colon is above 25 µM; in the test with HS 578T breast, above 8.59 µM; in the test with NCI-H226 lung it was above 25 µM; in the test on DU-145 prostate it was 0.407 µM.
`C=C1C(=O)OC2CC(C)C(/C=C/C(C)=O)=CCC12` (configuration not stated): the TGI with A498 renal, with SF-295 CNS, in the test on RXF 393 renal, in the test on ACHN renal, with HCT-116 colon and in the test with MCF7 breast was above 100 µM in each case. Moreover, the total growth inhibition concentration (TGI) with SW-620 colon, in the test on HS 578T breast, with NCI-H226 lung and with DU-145 prostate was above 100 µM each time.
Take `OCCCN=C1CCCCC1`: the concentration for total growth inhibition (TGI) in the test on A498 renal, in the test on SF-295 CNS, in the test with RXF 393 renal, in the test on ACHN renal, in the test with HCT-116 colon and in the test on MCF7 breast was above 100 µM in each case. For the same compound, the TGI in the test with SW-620 colon, with HS 578T breast, in the test with NCI-H226 lung and in the test with DU-145 prostate was above 100 µM each time.
Consider `NC(=NCCCCCCN=C(N)/N=C(\N)Nc1ccc(Cl)cc1)/N=C(\N)Nc1ccc(Cl)cc1`, for which the GI50 is 1.6 µM in the test with A498 renal; 0.966 µM with SF-295 CNS; 1.88 µM in the test on RXF 393 renal; 2.18 µM in the test on ACHN renal; 1.74 µM in the test with HCT-116 colon; 1.6 µM in the test with MCF7 breast. Moreover, the GI50 in the test with SW-620 colon was 1.54 µM; in the test with HS 578T breast, 1.43 µM; in the test with NCI-H226 lung it was 1.79 µM; in the test on DU-145 prostate, 1.93 µM. Also, the TGI with A498 renal worked out at 6.22 µM; in the test on SF-295 CNS, 2.35 µM; in the test on RXF 393 renal, 8.11 µM; with ACHN renal, 8.36 µM; with HCT-116 colon, 6.12 µM; with MCF7 breast, 5.49 µM. Further, the TGI worked out at 5.15 µM in the test on SW-620 colon, 4.73 µM in the test with HS 578T breast, 9.12 µM in the test with NCI-H226 lung and 6.52 µM in the test on DU-145 prostate.
Regarding `CC1(C)N=C(N)N=C(N)N1c1ccc(CCCC(=O)Nc2ccc(S(=O)(=O)F)cc2)cc1`, the GI50 in the test with A498 renal was 37.5 µM; in the test on SF-295 CNS, 38.6 µM; in the test on RXF 393 renal it was 4.22 µM; in the test on ACHN renal it was 58.7 µM; in the test on HCT-116 colon, 3.69 µM; in the test with MCF7 breast, 5.23 µM. Moreover, the GI50 in the test with SW-620 colon was 1.99 µM; in the test on HS 578T breast, above 100 µM; in the test on NCI-H226 lung it was 63.1 µM; with DU-145 prostate it was 6.98 µM. Moreover, the TGI in the test on A498 renal, in the test on SF-295 CNS, in the test with RXF 393 renal, in the test with ACHN renal, in the test with HCT-116 colon and in the test on MCF7 breast was above 100 µM in each case. In addition, the TGI in the test with SW-620 colon, in the test with HS 578T breast, in the test on NCI-H226 lung and with DU-145 prostate was above 100 µM in each case.
With `CC(=O)ON(OCc1ccc2ccccc2c1)C(C)=O`, the GI50 is above 100 µM with A498 renal; above 100 µM with SF-295 CNS; above 100 µM with RXF 393 renal; above 100 µM in the test on ACHN renal; above 100 µM in the test with HCT-116 colon; 96.1 µM with MCF7 breast. Besides, the GI50 is above 100 µM in the test on SW-620 colon, 55.2 µM in the test with HS 578T breast, above 100 µM with NCI-H226 lung and above 100 µM with DU-145 prostate. Moreover, the TGI with A498 renal, with SF-295 CNS, in the test with RXF 393 renal, in the test on ACHN renal, with HCT-116 colon and in the test on MCF7 breast was above 100 µM each time. Also, the TGI with SW-620 colon, with HS 578T breast, in the test with NCI-H226 lung and in the test on DU-145 prostate was above 100 µM throughout.
As for `O=[N+]([O-])c1ccccc1N=Nc1c(O)[nH]c2c(Cl)cccc12`, the concentration for total growth inhibition (TGI) in the test on A498 renal was above 68.8 µM; in the test with SF-295 CNS it was 31.6 µM; with RXF 393 renal, 98.1 µM; in the test on ACHN renal it was above 45.8 µM; in the test on HCT-116 colon, above 66.6 µM; with MCF7 breast, above 89.6 µM. Besides, the TGI in the test on SW-620 colon was above 79 µM; in the test with HS 578T breast, 43.4 µM; in the test on NCI-H226 lung, above 78.2 µM; in the test with DU-145 prostate it was above 79.2 µM.
For the compound `COc1ccc2nc3ccccc3c(NCCNCCO)c2c1`, the GI50 with A498 renal is 0.431 µM; in the test on SF-295 CNS, 0.484 µM; with RXF 393 renal it was 0.763 µM; in the test on ACHN renal it was 0.478 µM; in the test with HCT-116 colon, 0.352 µM; in the test with MCF7 breast, 0.363 µM. Moreover, the GI50 with SW-620 colon was 0.362 µM; in the test with HS 578T breast it was 0.688 µM; in the test with NCI-H226 lung, 0.947 µM; in the test with DU-145 prostate, 0.588 µM. Also, the TGI was 1.71 µM with A498 renal; 2.62 µM in the test with SF-295 CNS; 2.34 µM in the test with RXF 393 renal; 21.1 µM with ACHN renal; 4.84 µM with HCT-116 colon; 7.33 µM in the test with MCF7 breast. Also, the TGI with SW-620 colon was determined as 3.66 µM; in the test with HS 578T breast it was 3.85 µM; in the test with NCI-H226 lung, 3.38 µM; in the test on DU-145 prostate it was 5.8 µM.
`O=C1CCC(c2ccccc2)=NN1c1nc2ccccc2s1`: the TGI in the test with A498 renal is above 100 µM; with SF-295 CNS it was above 85.2 µM; in the test with RXF 393 renal, 34.1 µM; in the test with ACHN renal it was above 100 µM; with HCT-116 colon, above 88.2 µM; in the test on MCF7 breast, above 100 µM. Besides, the total growth inhibition concentration (TGI) in the test on SW-620 colon was above 100 µM; in the test on HS 578T breast, above 100 µM; in the test on NCI-H226 lung, above 100 µM; in the test with DU-145 prostate it was 64.6 µM.
Consider `O=C1/C(=C/c2ccc(Cl)cc2)CCC1CNc1ccc(Cl)cc1` (configuration not stated), for which the TGI with A498 renal was 54.8 µM; in the test with SF-295 CNS, above 100 µM; in the test with RXF 393 renal it was 26.4 µM; in the test on ACHN renal it was 26.9 µM; in the test on HCT-116 colon, 44.6 µM; with MCF7 breast it was 10.8 µM. The TGI with SW-620 colon was found to be 11.4 µM; in the test with HS 578T breast it was 64.9 µM; in the test with NCI-H226 lung, 98 µM; in the test with DU-145 prostate, 31.8 µM.
Turning to `CCn1c(-c2nonc2N)nc2ccccc21`, the GI50 in the test on A498 renal was above 25 µM; in the test with SF-295 CNS, above 25 µM; in the test with RXF 393 renal, 16.7 µM; in the test on ACHN renal it was above 25 µM; with HCT-116 colon it was above 25 µM; in the test on MCF7 breast, above 25 µM. The GI50 is above 25 µM in the test on SW-620 colon, above 22.3 µM with HS 578T breast, above 14.9 µM in the test on NCI-H226 lung and above 25 µM in the test with DU-145 prostate. Further, the TGI in the test with A498 renal, in the test with SF-295 CNS, with RXF 393 renal, in the test with ACHN renal, in the test on HCT-116 colon and in the test on MCF7 breast was above 25 µM throughout. Moreover, the TGI in the test with SW-620 colon, in the test with HS 578T breast, in the test on NCI-H226 lung and with DU-145 prostate was above 25 µM each time.
Consider `NNc1c(C(N)=O)c2c(N)ncnc2n1C1OC(CO)C(O)C1O` (configuration not stated), for which the GI50 in the test with A498 renal is 0.0445 µM and 0.161 µM; in the test on RXF 393 renal it was 0.0254 µM and < 0.0143 µM; in the test with ACHN renal it was 0.0167 µM; in the test with HCT-116 colon it was below 0.01 µM; in the test with MCF7 breast, 0.0729 µM; in the test with SW-620 colon, below 0.0124 µM. Further, the GI50 in the test with HS 578T breast was 0.056 µM and 0.107 µM; with NCI-H226 lung, 0.251 µM; in the test on DU-145 prostate, below 0.0151 µM. Further, the TGI in the test on A498 renal was 0.485 µM and 1.26 µM; in the test with SF-295 CNS, 9.44 µM and 2.91 µM; with RXF 393 renal it was 0.186 µM and 0.125 µM; in the test with ACHN renal, 0.101 µM and 0.499 µM; in the test on MCF7 breast, 0.179 µM and 1.29 µM; in the test with SW-620 colon, 0.992 µM and 0.241 µM. The TGI in the test on HS 578T breast was 0.826 µM and 2.38 µM; with DU-145 prostate, 0.183 µM and 0.178 µM.

For orientation: GI50 means the concentration at which growth is held to half of that of the control. One may read the TGI as the concentration at which net growth stops. A low value points to more potent growth arrest.
